In patent US7371721B2, “Use of GLP-2 and related compounds for the treatment, prevention, diagnosis, and prognosis of bone-related disorders and calcium homeostasis related syndromes” (priority 2000, dated 2008):
Blank lines part the entries; values can stand above or below the compound they belong to. No end group written: not given here.

Experiments:
[1] = system: ovariectomized induced bone loss; assay: Ovariectomized induced bone loss in aged rats, 6 week study; assay type: in vivo, female Sprague Dawley rats; conditions: 6 weeks, in comparison to the untreated controls
Procedure: The following is a protocol suitable to test whether GLP-2A at 250 μg/kg s.c. twice daily can inhibit ovariectomized induced bone loss in aged rats.
• Test articles: GLP-2 analogue (Gly2)GLP-2: […]OH. • Vehicle: 0.5% gelatin/PBS (degassed) Gelatin A: Cat. No. 325910, batch no. 273622 (Unikem, Copenhagen, Denmark). PBS: Dubecco's Phosphate buffered saline (BioWhitaker cat.no.BE17-512F) • Positive control: 17β-estradiol pellet 0.5 mg/60 days release implanted subcutaneous (SE-121 Innovative Research of America) A dose of 250 μg/kg is administered by subcutaneous injections twice daily (10-12 hours apart). The injection site will vary according to the injection scheme. The dose is calculated as follow: the weight ofthe rat in kg=the dose in ml; e.g. 0.301kg=0.30 ml Experimental System: The study is performed in 50 female Sprague Dawley rats in 4 groups each of 12 or 13 rats. Surgery: • The rats are anaesthetized with Hypnorm-Domicum (1 part Hypnorm+1 part Dormicum+2 part sterile dI water. The rats are given 0.15 ml/100 g body weight). Ovariectomy (OVX) or sham operations are performed via a midline incision in the back of the rats. […] The wet weight and length of the small intestine and the colon will be recorded. […] Bones are assessed by PQCT, trabecular strength and histomorphologic analysis.

S-CTX (bone resorption) = assay: Serum S-CTX (Serum CrossLaps ELISA) as marker of bone resorption in human subjects; assay type: in vivo
Procedure: (§1) In these Examples, hematology and serum chemistry including glucose were measured using an auto analyzer (Vitros). Serum […] was measured by IRMA (Coat-A-Count®, DPC, Los Angeles, Calif.). Serum C-telopeptide fragments of collagen type I degradation (S-CTX) were measured by ELISA, Serum CrossLaps™ assay (Osteometer BioTech A/S—Denmark). Serum osteocalcin was determined by ELISA, an assay which determines the N-terminal mid segment of the molecule. Serum insulin and c-peptide were both assessed by RIA (Coat-A-Count® for insulin and Double Antibody C-peptide for c-peptide both DPC, Los Angeles, Calif.). Total GIP was measured using the C-terminally directed antiserum R65, which reacts with the intact GIP (1-42) and the N-terminally truncated metabolite, GIP (3-42) (Krarup T, Holst J J 1984 The heterogeneity of gastric inhibitory polypeptide in porcine and human gastrointestinal mucosa evaluated with five different antisera. Regul Pept 9:35-46. ). GLP-2 was measured with a N-terminal specific antiserum code no. 92160, measuring only GLP-2 with an intact N-terminus. GLP-1 in plasma samples was measured using a RIA assay specific for the C-terminus of the GLP-1 molecule, using standards of synthetic GLP-1 (7-36) amide and antiserum no. […] GLP-1 is measured in Example 1 as a marker for the effect of the tested materials on GLP-2 levels. […]

GLP-1 = assay: Plasma GLP-1 level (RIA), in Examples 1 and 2 as marker for GLP-2; assay type: in vivo, human; conditions: after 2 hours, compared to the baseline of 100% at T0; oral 75 g fructose
Procedure: as §1

GIP = assay: Total GIP level (antiserum R65); assay type: in vivo, human; conditions: oral 75 g fructose
Procedure: as §1

[2] = in vivo; cited from earlier work
clinical = conditions: both sexes, human, in vivo, sc
Procedure: as §1

[3] = system: fractures in postmenopausal osteoporosis; conditions: cited from earlier work

Compound: C[C@]12CC[C@@H]3c4ccc(O)cc4CC[C@H]3[C@@H]1CC[C@@H]2O [17β-estradiol]
- protection against bone density loss following the OVX procedure [1]: protected against bone density loss

Compound: O=C(CO)[C@@H](O)[C@H](O)[C@H](O)CO [Oral fructose, fructose]
- reduction in S-CTX (S-CTX (bone resorption); after 2 hours, oral 75 g fructose in 300 ml water, fasted healthy women and men): 36%
- level of GLP-2 (measured as GLP-1) (GLP-1): 220%
- level of GIP (GIP): almost maintained at baseline

Compound: PTH: parathyroid hormone treatment (teriparatide and related compounds) discussed in the cited studies
- hypercalcemia and related symptoms, share of treated individuals [2]: about 11%

- Tmax (clinical): 1 h
Compound: CC[C@H](C)[C@H](NC(=O)[C@H](Cc1ccccc1)NC(=O)[C@H](CC(=O)O)NC(=O)[C@H](CCCNC(=N)N)NC(=O)[C@H](C)NC(=O)[C@H](C)NC(=O)[C@H](CC(C)C)NC(=O)[C@H](CC(N)=O)NC(=O)[C@H](CC(=O)O)NC(=O)[C@H](CC(C)C)NC(=O)[C@@H](NC(=O)[C@@H](NC(=O)[C@H](CC(N)=O)NC(=O)[C@H](CCSC)NC(=O)[C@H](CCC(=O)O)NC(=O)[C@H](CC(=O)O)NC(=O)[C@H](CO)NC(=O)[C@H](Cc1ccccc1)NC(=O)[C@H](CO)NC(=O)CNC(=O)[C@H](CC(=O)O)NC(=O)[C@H](C)NC(=O)[C@@H](N)Cc1c[nH]cn1)[C@@H](C)O)[C@@H](C)CC)C(=O)N[C@@H](CC(N)=O)C(=O)N[C@@H](Cc1c[nH]c2ccccc12)C(=O)N[C@@H](CC(C)C)C(=O)N[C@H](C(=O)N[C@@H](CCC(N)=O)C(=O)N[C@H](C(=O)N[C@@H](CCCCN)C(=O)N[C@H](C(=O)N[C@H](C(=O)N[C@@H](CC(=O)O)C(=O)O)[C@@H](C)O)[C@@H](C)CC)[C@@H](C)O)[C@@H](C)CC [GLP-2]
- reduction in S-CTX (S-CTX (bone resorption); after 3 hours, subcutaneous bolus injection of 400 μg, healthy women and men): 35%

Compound: His-Gly-Asp-Gly-Ser-Phe-Ser-Asp-Glu-Met-Asn-Thr-Ile-Leu-Asp-Asn-Leu-Ala-Ala-Arg-Asp-Phe-Ile-Asn-Trp-Leu-Ile-Gln-Thr-Lys-Ile-Thr-Asp-OH (HGDGSFSDEMNTILDNLAARDFINWLIQTKITD-OH) [(Gly2)GLP-2]
- protection against bone density loss following the OVX procedure [1]: protected against bone density loss

Compound: CC[C@H](C)[C@H](NC(=O)[C@H](CCC(=O)O)NC(=O)[C@H](CO)NC(=O)[C@@H](NC(=O)[C@@H](N)CO)C(C)C)C(=O)N[C@@H](CCC(N)=O)C(=O)N[C@@H](CC(C)C)C(=O)N[C@@H](CCSC)C(=O)N[C@@H](Cc1cnc[nH]1)C(=O)N[C@@H](CC(N)=O)C(=O)N[C@@H](CC(C)C)C(=O)NCC(=O)N[C@@H](CCCCN)C(=O)N[C@@H](Cc1cnc[nH]1)C(=O)N[C@@H](CC(C)C)C(=O)N[C@@H](CC(N)=O)C(=O)N[C@@H](CO)C(=O)N[C@@H](CCSC)C(=O)N[C@@H](CCC(=O)O)C(=O)N[C@@H](CCCN=C(N)N)C(=O)N[C@H](C(=O)N[C@@H](CCC(=O)O)C(=O)N[C@@H](Cc1c[nH]c2ccccc12)C(=O)N[C@@H](CC(C)C)C(=O)N[C@@H](CCCN=C(N)N)C(=O)N[C@@H](CCCCN)C(=O)N[C@@H](CCCCN)C(=O)N[C@@H](CC(C)C)C(=O)N[C@@H](CCC(N)=O)C(=O)N[C@@H](CC(=O)O)C(=O)N[C@H](C(=O)N[C@@H](Cc1cnc[nH]1)C(=O)N[C@@H](CC(N)=O)C(=O)N[C@@H](Cc1ccccc1)C(=O)O)C(C)C)C(C)C [teriparatide]
- effect on new non-vertebral fractures ([3]; by the end of the 21-month treatment period): −35%
- decrease in occurrence of new vertebral fractures ([3]; subcutaneous daily dose 20 μg, Caucasian women (70 years of age)): 65%
- reduction of moderate-to-severe fractures ([3]; subcutaneous daily dose 20 μg): 90%
- reduction of multiple vertebral fractures ([3]; subcutaneous daily dose 20 μg): 77%
